Measured values: patent publication US9833497B2, “Human originated EGF domain proteins and use of the same” (CHENGDU SOURCEBIO LIMITED-LIABILITY COMPANY, priority 2013, dated 2017)

How the values were obtained:
Assay type in all cases: cell-based
[1] = system: Klebsiella pneumonia; assay: MIC against Gram-negative bacteria: Klebsiella pneumonia; details: for MIC against K. pneumonia: Klebsiella pneumonia
Method: (§1) 1. Gram-negative bacteria, such as E. coli BL21, Pseudomonas aeruginosa, Klebsiella pneumonia, Enterobacter cloacae, Aeromonas hydrophila, Citrobacter diversus, Moraxella catarrhalis, Proteus mirabilis, Proteus vulgaris, Serratia marcescens, etc were streaked on solid LB medium and cultured respectively. Then, typical clones were picked, inoculated into common liquid LB medium respectively, and cultured at 37° C. with shaking at 185 rpm until the McFarland specific turbidity was 0.5. The bacterial culture of each of Gram-negative bacteria was centrifuged at 4000×g for 3 min, the supernatant was discarded, and the thalli were resuspended with fresh LB medium.
(§2) 2. The above-mentioned bacterial suspensions were diluted and inoculated into 96-well plates with the final concentration of the bacterial suspension being 5×10^5 CFU/mL per well.
(§3) 3. Each of the purified human-originated EGF domain proteins (PRT1 to PRT1498 in Table 1) was added to each of the above wells and subjected to two-fold serial dilution in concentration. Three parallel wells were set up for each concentration in the gradient.
(§4) 4. The above-mentioned 96-well plates were placed and cultured at 37° C. in shaking incubator shaking at 175 rpm. […] The minimal inhibitory concentration MIC is defined as the lowest concentration of the recombinant protein at which there is no growth of the bacteria.

[2] = system: Citrobacter diversus; assay: MIC against Gram-negative bacteria: Citrobacter diversus; details: for MIC against C. diversus: Citrobacter diversus
Method: as §1, §2, §3, §4

[3] = system: Enterobacter cloacae; assay: MIC against Gram-negative bacteria: Enterobacter cloacae; details: for MIC against E. cloacae: Enterobacter cloacae
Method: as §1, §2, §3, §4

[4] = system: Pseudomonas aeruginosa; assay: MIC against Gram-negative bacteria: Pseudomonas aeruginosa; details: for MIC against P. aeruginosa: Pseudomonas aeruginosa
Method: as §1, §2, §3, §4

[5] = system: Aeromonas hydrophila; assay: MIC against Gram-negative bacteria: Aeromonas hydrophila; details: for MIC against A. hydrophila: Aeromonas hydrophila
Method: as §1, §2, §3, §4

[6] = system: Moraxella catarrhalis; assay: MIC against Gram-negative bacteria: Moraxella catarrhalis; details: for MIC against M. catarrhalis: Moraxella catarrhalis
Method: as §1, §2, §3, §4

[7] = system: Proteus mirabilis; assay: MIC against Gram-negative bacteria: Proteus mirabilis; details: for MIC against P. mirabilis: Proteus mirabilis
Method: as §1, §2, §3, §4

[8] = system: E. coli BL21; assay: MIC against Gram-negative bacteria: E. coli BL21
Method: as §1, §2, §3, §4

[9] = system: Proteus vulgaris; assay: MIC against Gram-negative bacteria: Proteus vulgaris; details: for MIC against P. vulgaris: Proteus vulgaris
Method: as §1, §2, §3, §4

[10] = system: E. coli DH5α; assay: Antibacterial activity: MIC and growth curve against E. coli DH5α in 96-well plate; details: minimal inhibitory concentration against E. coli DH5α; 96-well plate, 5×10^5 CFU/mL, 37° C., judged after 8 h
Method: 1. E. coli DH5α was exemplified. E. coli DH5α was streaked and cultured on LB solid medium. Then, a typical clone was picked and inoculated into common LB liquid medium, cultured at 37° C. with shaking at 185 rpm until the logarithmic growth phase was reached (OD600 of about 0.5). The bacterial culture was centrifuged at 4000×g for 3 min, the supernatant was discarded, and the thalli were resuspended with fresh LB medium.
2. The above-mentioned bacterial suspension was diluted and inoculated into a 96-well plate with the total volume of 100 μL per well and a bacterial count of 5×10^5 CFU/mL.
3. The recombinant protein hF VII-EGF1 was added to the above-mentioned wells with the final protein concentration in the well of the highest protein concentration being 50 μg/mL. Basing on this final concentration, a two-fold serial dilution was performed till a protein concentration gradient consisting of 50, 25, and 12.5 μg/mL was set up. Three parallel wells were set up for each concentration in the gradient.
as §4, with “plate was” for “plates were”, “rpm. Samples were taken every 30 min, the absorbance values were determined at 600 nm wavelength under a ultra violet spectrophotometer, and an inhibition curve was plotted.” for “rpm.”
According to the experimental procedures in Example 14, the minimal inhibitory concentrations (MIC, μg/mL) of the other human-originated EGF domain proteins (PRT2 to PRT1498 in Table 1) for E. coli DH5α were determined.

[11] = system: Serratia marcescens; assay: MIC against Gram-negative bacteria: Serratia marcescens; details: for MIC against S. marcescens: Serratia marcescens
Method: as §1, §2, §3, §4

[12] = 96-well plate, 5×10^5 CFU/mL, 37° C., 10 h
[13] = E. coli BL21, 96-well plate, 5×10^5 CFU/mL, 37° C., 10 h

Substance: PRT768 (AIDYCSFGNHSCQHECVSTPGGPRCHCREGHDLQPDGRSCQ; listed as Homo sapiens)
- MIC (μg/mL) K. pneumonia ([1]; K. pneumonia, 10 h cultivation at 37° C., 5×10^5 CFU/mL): 12.5 µg/mL
- MIC (μg/mL) C. diversus ([2]; C. diversus, 10 h cultivation at 37° C., 5×10^5 CFU/mL): 50 µg/mL
- MIC (μg/mL) E. cloacae ([3]; E. cloacae, 10 h cultivation at 37° C., 5×10^5 CFU/mL): 50 µg/mL
- MIC (μg/mL) P. aeruginosa ([4]; P. aeruginosa, 10 h cultivation at 37° C., 5×10^5 CFU/mL): 25 µg/mL
- MIC (μg/mL) A. hydrophila ([5]; A. hydrophila, 10 h cultivation at 37° C., 5×10^5 CFU/mL): 12.5 µg/mL
- MIC (μg/mL) M. catarrhalis ([6]; M. catarrhalis, 10 h cultivation at 37° C., 5×10^5 CFU/mL): 25 µg/mL
- MIC (μg/mL) P. mirabilis ([7]; P. mirabilis, 10 h cultivation at 37° C., 5×10^5 CFU/mL): 12.5 µg/mL
- MIC (μg/mL) E. coli BL21 ([8]; E. coli BL21, 10 h cultivation at 37° C., 5×10^5 CFU/mL): 50 µg/mL
- MIC (μg/mL) P. vulgaris ([9]; P. vulgaris, 10 h cultivation at 37° C., 5×10^5 CFU/mL): 25 µg/mL
- MIC [10]: 12.5 µg/mL
- MIC (μg/mL) S. marcescens ([11]; S. marcescens, 10 h cultivation at 37° C., 5×10^5 CFU/mL): 12.5 µg/mL

Substance: PRT689 (DNDECADEEPACEGGRCVNTVGSYHCTCEPPLVLDGSQRRCV; listed as Homo sapiens)
- MIC K. pneumonia [1, 12]: 12.5 µg/mL
- MIC C. diversus [2, 12]: 12.5 µg/mL
- MIC E. cloacae [3, 12]: 25 µg/mL
- MIC P. aeruginosa [4, 12]: 50 µg/mL
- MIC A. hydrophila [5, 12]: 50 µg/mL
- MIC M. catarrhalis [6, 12]: 50 µg/mL
- MIC P. mirabilis [7, 12]: 25 µg/mL
- MIC E. coli BL21 [8, 12]: 25 µg/mL
- MIC P. vulgaris [9, 12]: 12.5 µg/mL
- MIC [10]: 100 µg/mL
- MIC S. marcescens [11, 12]: 25 µg/mL

Substance: PRT1309 (EVDPCAHGHGGCSPHANCTKVAPGQRTCTCQDGYMGDGELCQ; listed as Homo sapiens)
- MIC against K. pneumonia [1, 12]: 50 µg/mL
- MIC against C. diversus [2, 12]: 25 µg/mL
- MIC against E. cloacae [3, 12]: 12.5 µg/mL
- MIC against P. aeruginosa [4, 12]: 12.5 µg/mL
- MIC against A. hydrophila [5, 12]: 50 µg/mL
- MIC against M. catarrhalis [6, 12]: 12.5 µg/mL
- MIC against P. mirabilis [7, 12]: 25 µg/mL
- MIC against E. coli BL21 [8, 13]: 50 µg/mL
- MIC against P. vulgaris [9, 12]: 50 µg/mL
- MIC [10]: 12.5 µg/mL
- MIC against S. marcescens [11, 12]: 25 µg/mL

Substance: PRT1200 (DIDECSEGIIECHNHSRCVNLPGWYHCECRSGFHDDGTY; listed as Homo sapiens)
- MIC against K. pneumonia [1, 12]: 12.5 µg/mL
- MIC against C. diversus [2, 12]: 12.5 µg/mL
- MIC against E. cloacae [3, 12]: 25 µg/mL
- MIC against P. aeruginosa [4, 12]: 12.5 µg/mL
- MIC against A. hydrophila [5, 12]: 25 µg/mL
- MIC against M. catarrhalis [6, 12]: 50 µg/mL
- MIC against P. mirabilis [7, 12]: 25 µg/mL
- MIC against E. coli BL21 [8, 13]: 12.5 µg/mL
- MIC against P. vulgaris [9, 12]: 12.5 µg/mL
- MIC [10]: 12.5 µg/mL
- MIC against S. marcescens [11, 12]: 50 µg/mL

Substance: PRT1001 (EMTACHSGPCLNGGSCNPSPGGYYCTCPPSHTGPQCQ; listed as Homo sapiens)
- MIC ([1]; K. pneumonia, 10 h cultivation at 37° C.): 50 µg/mL
- MIC ([2]; C. diversus, 10 h cultivation at 37° C.): 50 µg/mL
- MIC ([3]; E. cloacae, 10 h cultivation at 37° C.): 25 µg/mL
- MIC ([4]; P. aeruginosa, 10 h cultivation at 37° C.): 12.5 µg/mL
- MIC ([5]; A. hydrophila, 10 h cultivation at 37° C.): 12.5 µg/mL
- MIC ([6]; M. catarrhalis, 10 h cultivation at 37° C.): 25 µg/mL
- MIC ([7]; P. mirabilis, 10 h cultivation at 37° C.): 12.5 µg/mL
- MIC ([8]; E. coli BL21, 10 h cultivation at 37° C.): 50 µg/mL
- MIC ([9]; P. vulgaris, 10 h cultivation at 37° C.): 25 µg/mL
- MIC [10]: 12.5 µg/mL
- MIC ([11]; S. marcescens, 10 h cultivation at 37° C.): 50 µg/mL
